Experimental data reported in patent US12501899B2, “Mite infestation treatment” (priority 2019, dated 2025).
Structures can show the parent of a compound that is named as a salt. Where two headings read alike, the source gives them in different places.

Legend:
Ixodes ricinus = experiment: Oral acaricidal test on ticks in membrane feeding wells with treated blood; format: in vivo; settings: for mortality at 1 ppm / mortality at 10 ppm / mortality at 100 ppm: Ixodes ricinus, po
Description: A laboratory study was conducted to determine the oral acaricidal properties of three compounds according to the invention (SN0305, SN0306 and SN0307) against Ixodes ricinus. Each compound was tested at 1, 10 and 100 ppm, and compared to a negative control corresponding to solvent alone (0.1% DMSO). Amitraz at 100 ppm was used as a positive control.
The Ixodes ricinus ticks (nymphs and adults) were placed for 24 hours on a membrane in feeding wells containing blood mixed with the tested compounds. Tick mortality (number of dead, moribund, or unaffected ticks in each well), attachment to the membrane (number of ticks attached/detached in each well), and the behavior (presence or absence of twitches) were examined 1, 3, 6, 12, 24, 48, 72, and 96 hours after the onset of tick exposure to the compounds.
Ticks (Ixodes ricinus) were collected. Collected adult females were kept separate from the nymphs and both were placed in sterile tubes in a humidity chamber to provide ˜80% humidity and 17° C. Only healthy ticks (females/nymphs) were chosen for the experiment.
Batches of 12 adults or nymphs were inserted into the feeding wells. After about 24 hours, their attachment was examined with a brush.
The efficiency of three compounds (SN0305, SN0306 and SN0307), each tested at three concentrations (1, 10, 100 ppm), was compared to the solvent control (0.1% DMSO, Sigma-Aldrich D-5879; Lot 101K0028) and to the positive control (Amitraze at 100 ppm).
Silicone-coated membranes with a thickness comprised between 110 and 140 μm were used for the construction of the feeding units.
Feeding units (sterilized acrylic glass tubes) were placed in feeding wells made of sterilized six-well plates.
3.1 ml of sterile 10^−3 M ATP-enriched blood was applied to each feeding well. Feeding wells were then inserted into a heated water bath (FIG. 12) and maintained at 37° C.±2° C.
Stock solutions of 100,000 ppm were prepared and tenth dilutions were carried out in 0.1% DMSO to reach the desired concentrations. After tick attachment (24 hours after placing the ticks in the feeding wells), 3.1 μl of the solutions were added to each feeding well containing 3.1 ml of blood. Blood was changed after 12 hours with fresh supplementation of the compounds to be tested. The ticks were exposed to the product for a total of 24 hours, after which the blood was again changed to fresh, untreated blood.
Tick mortality (number of dead, moribund or unaffected ticks in each well), attachment (number of attached/detached ticks in each well) and behavior (presence, absence and intensity of convulsions) were examined 1, 3, 6, 12, 24, 48, 72, and 96 hours after the start of tick exposure to the compound.

Varroa destructor = settings: 0.1 μg/μL in ethanol
Description: About 300 bees (Apis mellifera) infected with Varroa destructor were taken from a hive superinfected with Varroa destructor. The bees were then placed in a device allowing to detach Varroa mites attached to the bees (device described in Community model n° 003419415-0001) filled with icing sugar. The device was stirred for 2 minutes to sample the Varroa mites attached to the bees. The icing sugar allows to interfere between the bee and the Varroa mite that was attached thereto. Varroa mites were harvested with icing sugar because they pass through the holes in the device, unlike bees. The Varroa mites were then separated from the icing sugar.
The Varroa mites thus recovered were dispatched in boxes (10 Varroa mites per box).
The bees were then dispatched in the boxes (10 per box).
The bees were then put to sleep for a few minutes using CO2 (flow of 3 liters for 20 seconds) in order to deposit 1 μL of compound to be tested on their thorax using a pipette. It should be noted that the bees which received romifidine hydrochloride at a concentration of 10 μg/μL received 2 μL of product. The bees were unconscious for the time the compound to be tested was deposited, that is to say around three minutes, then they woke up.
After thoracic deposition of the compound to be tested, the 10 bees from the same box were transferred to a box containing the 10 Varroa mites (cf. “Preparation of Varroa mites” above). Liquid sugar was left in each of the boxes to feed the bees during the observations. The series of boxes was then placed in an oven at […] with a humidity of 50% in order to approximate hive conditions as closely as possible.
The mortality of Varroa mites and bees was then monitored 5 minutes, 2 hours, 4 hours and 24 hours after application of the compound to be tested to the bees. Dead Varroa mites correspond to Varroa mites detached from the bees. Dead bees correspond to bees which no longer move and which are often placed on their thorax.
The following compositions were applied to the thorax of the bees: • Solvent, • Amitraz at 1 μg/μL in acetone, • Clonidine hydrochloride at 100 μg/μL, 10 μg/μL, 1 μg/μL and 0.1 μg/μL in methanol, • Detomidine hydrochloride monohydrate at 1 μg/μL in methanol, • Dexmedetomidine hydrochloride at 100 μg/μL, 10 μg/μL, 1 μg/μL and 0.1 μg/μL in methanol, • Romifidine hydrochloride at 10 μg/μL and at 5 μg/μL in methanol, • Tizanidine hydrochloride at 1 μg/μL in methanol, • Medetomidine hydrochloride at 0.1 μg/μL in ethanol, • Levomedetomidine hydrochloride at 100 μg/μL, 10 μg/μL, 1 μg/μL and 0.1 μg/μL in methanol, • Octopamine at 1 μg/μL in ethanol. Results

[1] = adult ticks, 1 h, read-out: average percentage of adult tick mortality (moribund or dead adult ticks)
[2] = adult ticks, 3 h, read-out: average percentage of adult tick mortality (moribund or dead adult ticks)
[3] = adult ticks, 6 h, read-out: average percentage of adult tick mortality (moribund or dead adult ticks)
[4] = adult ticks, 12 h, read-out: average percentage of adult tick mortality (moribund or dead adult ticks)
[5] = adult ticks, 24 h, read-out: average percentage of adult tick mortality (moribund or dead adult ticks)
[6] = adult ticks, 48 h, read-out: average percentage of adult tick mortality (moribund or dead adult ticks)
[7] = adult ticks, 72 h, read-out: average percentage of adult tick mortality (moribund or dead adult ticks)
[8] = adult ticks, 96 h, read-out: average percentage of adult tick mortality (moribund or dead adult ticks)
[9] = nymphs, 1 h, read-out: average percentage of mortality of tick nymphs (moribund or dead nymphs)
[10] = nymphs, 3 h, read-out: average percentage of mortality of tick nymphs (moribund or dead nymphs)
[11] = nymphs, 6 h, read-out: average percentage of mortality of tick nymphs (moribund or dead nymphs)
[12] = nymphs, 12 h, read-out: average percentage of mortality of tick nymphs (moribund or dead nymphs)
[13] = nymphs, 24 h, read-out: average percentage of mortality of tick nymphs (moribund or dead nymphs)
[14] = nymphs, 48 h, read-out: average percentage of mortality of tick nymphs (moribund or dead nymphs)
[15] = nymphs, 72 h, read-out: average percentage of mortality of tick nymphs (moribund or dead nymphs)
[16] = nymphs, 96 h, read-out: average percentage of mortality of tick nymphs (moribund or dead nymphs)

Cc1cccc(C(C)c2cnc[nH]2)c1C (racemic) [Medetomidine hydrochloride]
effect in terms of tick detachment (in words) (Ixodes ricinus; 1, 10, 100 ppm, nymphs and adults): very limited effect | mortality at 1 ppm (Ixodes ricinus; [1]): 0% | mortality at 1 ppm (Ixodes ricinus; [2]): 0% | mortality at 1 ppm (Ixodes ricinus; [3]): 2.3% | mortality at 1 ppm (Ixodes ricinus; [4]): 7.3% | mortality at 1 ppm (Ixodes ricinus; [5]): 47.6% | mortality at 1 ppm (Ixodes ricinus; [6]): 97.7% | mortality at 1 ppm (Ixodes ricinus; [7]): 100% | mortality at 1 ppm (Ixodes ricinus; [8]): 100% | mortality at 10 ppm (Ixodes ricinus; [1]): 0% | mortality at 10 ppm (Ixodes ricinus; [2]): 0% | mortality at 10 ppm (Ixodes ricinus; [3]): 9.6% | mortality at 10 ppm (Ixodes ricinus; [4]): 9.6% | mortality at 10 ppm (Ixodes ricinus; [5]): 53.9% | mortality at 10 ppm (Ixodes ricinus; [6]): 91.2% | mortality at 10 ppm (Ixodes ricinus; [7]): 100% | mortality at 10 ppm (Ixodes ricinus; [8]): 100% | mortality at 100 ppm (Ixodes ricinus; [1]): 0% | mortality at 100 ppm (Ixodes ricinus; [2]): 0% | mortality at 100 ppm (Ixodes ricinus; [3]): 12.5% | mortality at 100 ppm (Ixodes ricinus; [4]): 18.1% | mortality at 100 ppm (Ixodes ricinus; [5]): 53.1% | mortality at 100 ppm (Ixodes ricinus; [6]): 84.7% | mortality at 100 ppm (Ixodes ricinus; [7]): 93.8% | mortality at 100 ppm (Ixodes ricinus; [8]): 100% | mortality at 1 ppm (Ixodes ricinus; [9]): 0% | mortality at 1 ppm (Ixodes ricinus; [10]): 0% | mortality at 1 ppm (Ixodes ricinus; [11]): 19.5% | mortality at 1 ppm (Ixodes ricinus; [12]): 38.9% | mortality at 1 ppm (Ixodes ricinus; [13]): 61.8% | mortality at 1 ppm (Ixodes ricinus; [14]): 93.9% | mortality at 1 ppm (Ixodes ricinus; [15]): 100% | mortality at 1 ppm (Ixodes ricinus; [16]): 100% | mortality at 10 ppm (Ixodes ricinus; [9]): 0% | mortality at 10 ppm (Ixodes ricinus; [10]): 10.4% | mortality at 10 ppm (Ixodes ricinus; [11]): 38.4% | mortality at 10 ppm (Ixodes ricinus; [12]): 58.5% | mortality at 10 ppm (Ixodes ricinus; [13]): 78.7% | mortality at 10 ppm (Ixodes ricinus; [14]): 85% | mortality at 10 ppm (Ixodes ricinus; [15]): 95.8% | mortality at 10 ppm (Ixodes ricinus; [16]): 100% | mortality at 100 ppm (Ixodes ricinus; [9]): 0% | mortality at 100 ppm (Ixodes ricinus; [10]): 9.1% | mortality at 100 ppm (Ixodes ricinus; [11]): 38.5% | mortality at 100 ppm (Ixodes ricinus; [12]): 69.2% | mortality at 100 ppm (Ixodes ricinus; [13]): 94.4% | mortality at 100 ppm (Ixodes ricinus; [14]): 100% | mortality at 100 ppm (Ixodes ricinus; [15]): 100% | mortality at 100 ppm (Ixodes ricinus; [16]): 100% | ticks affected (convulsion, morbidity or death of ticks) (Ixodes ricinus; from 1 hour of exposure, regardless of the concentration tested (1, 10, 100 ppm)): 100% | Varroacid effect (in words) (Varroa destructor): very effective
